# Assay results taken from US20250041334A1, “Compositions for Virulence Suppression” (Solventum Intellectual Properties Company, priority 2021, published 2025).
# Assays:
# S. aureus MN8 (pJY202) = experiment: Bacterial growth (OD600) in the Agr reporter assay; assay type: cell-based, Staphylococcus aureus MN8; details: 1X TY media, pH about 6.0, 24 hours
# Protocol: (§1) An S. aureus MN8 (pJY202) colony was picked from a TSA plate and grown overnight in TSB media with 5 µg/mL erythromycin with shaking at 37° C. The culture was centrifuged at 3000×g for 5 minutes and the supernatant was removed. The bacteria were washed once with water.
# (§2) Individual growth media solutions for the assay were freshly prepared by adding materials to 1X TY media with 5 μg/mL erythromycin and then adjusting the pH of each solution to about pH 6.0 (using 1M NaOH or 1M HCl). All the growth media solutions were sterile filtered when possible using a 0.2 micrometer filter.
# (§3) An aliquot of each growth media solution (200 microliters) was added to the well of a 96-well black, clear-bottom plate. Samples were prepared in triplicate (n=3). The bacteria samples were resuspended in 5 mL of 1X TY media. A 3 microliter sample of resuspended S. aureus MN8 (pJY202) was added to each well. […] Bacterial growth was measured at 600 nm (OD600) and Agr activity was measured as fluorescent intensity at 485 nm excitation/528 nm emission. Agr activity (relative fluorescence units, RFU) was normalized to bacterial growth (OD600) for each well. The Agr activity was measured at the 24 hour time point.
# [1] = system: accessory gene regulator (agr) system, agr P2-P3 GFP reporter pJY202; experiment: Agr Reporter (Staph Aureus) Assay; assay type: cell-based, Staphylococcus aureus MN8; details: S. aureus MN8 (pJY202), 1X TY media, RFU normalized to OD600, 24 hours, n=3
# Protocol: Description: The expression of many virulence factors in Staphylococcus aureus is controlled by the quorum sensing accessory gene regulator (agr) system. The plasmid pJY202 is an agr reporter that contains a fusion of the agr P2-P3 region with a gene coding for GFP.
# as §1, §2
# as §3, with “media.” for “media. A 3 microliter sample of resuspended S. aureus MN8 (pJY202) was added to each well.”
compound,measurement,setting,value
"O=P([O-])(O)O.[K+] [50 mM KH2PO4, KH2PO4]",Growth OD600 at 24 hours,S. aureus MN8 (pJY202),1.02
same,Agr Expression at 24 hours,[1],86 +/− 6
